# Measured values: publication PMC11492034, “The MRGPRX2-substance P pathway regulates mast cell migration” (iScience, 2024)
# What was measured:
# [1] = tested on: MC progenitors; conditions: LTB4: ref 38, 40, 42; PGE2: no ref at this clause; cited from earlier work
# [2] = tested on: asthmatic subjects; conditions: cited from earlier work
# [3] = tested on: neurokinin 1 receptor; conditions: 100 nM aprepitant, SP 0.03-10, immature mast cells, n=1
# Protocol: Chemotaxis assays were carried out using 8 μm pore ChemoTX™ assay plates (Neuroprobe, Gaithersburg, USA). Cells were first loaded with 5 μM Calcein-AM for 30 mins, 37°C/5% CO2 in cell culture medium prior to being washed and resuspended at a concentration of 1 x 10^6.ml^-1. Where appropriate cells were pre-incubated with Compound A or vehicle control. Chemoattractants were prepared in cell culture medium and placed in the lower chamber. The plate was constructed and 50 μl cell suspension applied to the upper part of the membrane of each well. No chemoattractant and equal chemoattractant on both sides of the chamber were used to control for random cell movement. The plate was incubated for 6 hours 37°C/5% CO2 before analysis of migrated cells, as follows. Cells were removed from above the membrane by pipetting, the membrane was then washed with PBS buffer containing 2mM EDTA and wiped using a rubber filter wiper (Neuroprobe). PBS/EDTA was applied to the upper side of the membrane and the plate incubated for 30 mins at 4°C before again being wiped. The plate was then centrifuged at 500 x g for 5 mins to capture cells attached to the underside of the membrane. […] Total migrated cells were counted as Live/Dead™-/Calcein-AM+/CD117+ cells or Live/Dead™-/Calcein-AM+ cells in each sample. […]
# [4] = molecular target: T1, MRGPRX2 (Homo sapiens, UniProt Q96LB1); conditions: 15 min; 1 µM (PACAP1-38, PACAP1-27, PAMP9-20, VIP) or 10 µM (CGRP); concentration response 0.01-100 µM, n=1 of a mix of 2 donors
# Protocol: Degranulation was assessed by labelling of externalised CD63 (clone H5C6) as previously established[3] in response to substance P (Genscript, Oxford, UK), IgE/anti-IgE, anti-FcεRIα (clone AER37, Biolegend, London, UK) or C3a (CompTech, Tyler, USA). In all cases, cells were washed in PBS prior to incubation with live/dead™ reagent before analysis. […] Fc blocking reagent and antibodies were added, diluted in 1x permeabilisation buffer (BD Bioscience, Winnersh, UK), cells were washed and incubated with goat anti-mouse polyclonal antibodies labelled with PE or APC (Biolegend, London, UK). All cells were analysed on FACSymphony A5 or LSRFostessa instruments, and FlowJo software (BD Bioscience, Winnersh, UK). CD63 externalisation was used as a surrogate for MC degranulation according to established methodology.[52]^,[53]^,[54]
# Putative MRGPRX2 ligand activation of MRGPRX2 positive cells.
# (A) Gating showing degranulation, as measured by CD63 externalisation (x-axis), vs MRGPRX2 expression (y-
# axis) after 15 mins of treatment with labelled agonists at 1µM (PACAP1-38, PACAP1-27, PAMP9-20, VIP) or
# Percentage of cells in each quadrant is shown.
# (B) Degranulation of mast cells in response to agonists (0.01-100 µM) after 15 minutes of application, as
# shown. Data are n=1 of a mix of 2 donors.
# [5] = molecular target: T1, MRGPRX2; conditions: cited from earlier work
# T1 sequence (Q96LB1 whole entry): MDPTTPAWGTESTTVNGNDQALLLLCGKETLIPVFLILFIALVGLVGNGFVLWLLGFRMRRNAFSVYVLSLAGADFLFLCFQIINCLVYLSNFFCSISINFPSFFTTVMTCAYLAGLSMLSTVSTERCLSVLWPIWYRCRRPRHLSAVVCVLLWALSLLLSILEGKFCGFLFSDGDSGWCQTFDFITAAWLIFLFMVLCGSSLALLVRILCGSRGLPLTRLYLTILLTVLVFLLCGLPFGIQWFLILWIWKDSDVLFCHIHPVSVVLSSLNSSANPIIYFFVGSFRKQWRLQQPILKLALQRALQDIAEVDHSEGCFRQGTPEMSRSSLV
compound,measurement,setting,value
CCCCC/C=C\C[C@@H](O)/C=C/C=C/C=C\[C@@H](O)CCCC(=O)O [LTB4],effect on MC migration,[1],"known to attract MC progenitors, recruiting them from the circulation, and lose its effect upon MC maturation"
CCCCC[C@H](O)/C=C/[C@H]1[C@H](O)CC(=O)[C@@H]1C/C=C\CCCC(=O)O [PGE2],effect on MC migration,[1],more prone to regulating cell movement within the tissue
CSCC[C@H](NC(=O)[C@H](CC(C)C)NC(=O)CNC(=O)[C@H](Cc1ccccc1)NC(=O)[C@H](Cc1ccccc1)NC(=O)[C@H](CCC(N)=O)NC(=O)[C@H](CCC(N)=O)NC(=O)[C@@H]1CCCN1C(=O)[C@H](CCCCN)NC(=O)[C@@H]1CCCN1C(=O)[C@@H](N)CCCN=C(N)N)C(N)=O [SP],bronchoconstriction in asthmatic subjects,[2],does not induce bronchoconstriction
C[C@@H](O[C@H]1OCCN(Cc2n[nH]c(=O)[nH]2)[C@H]1c1ccc(F)cc1)c1cc(C(F)(F)F)cc(C(F)(F)F)c1 [aprepitant],inhibition of SP-induced chemotaxis,[3],did not
CGRP,"CD63 degranulation, neuropeptide",[4],minimal effect
LL-37,binding to MRGPRX2,[5],binds
PAMP-20,binding to MRGPRX2,[5],binds
cortistatin-14,binding to MRGPRX2,[5],binds
